The source made the active and inactive calls. No cut-off for these calls is given here.
Tests used:
[1] = molecular target: Poly [ADP-ribose] polymerase 1 (Homo sapiens) (UniProt P09874); experiment: Induction of PARP1 degradation in triple-negative human MDA-MB-231 cells assessed as fold change in PARP1 protein expression at 1 uM incubated for 48 hrs by Western blot analysis relative to control; type: cell-based
[2] = molecular target: Poly [ADP-ribose] polymerase 1 (Homo sapiens) (UniProt P09874); experiment: Induction of PARP1 degradation in human MDA-MB-231 cells assessed as fold change in PARP1 protein expression at 5 uM pretreated for 2 hrs with pan-caspase inhibitor, Z-VAD-FMK followed by incubation with compound for 48 hrs by Western blot analysis relative to control; type: cell-based
MDA-MB-231 [3] = experiment: Induction of autophagy in human MDA-MB-231 cells assessed as autophagosome, large double membrane-bound vesicles enclosing cytoplasmic components formation at 5 uM incubated for 24 to 48 hrs by transmission electron microscopy; type: functional, cell-based; details: time 24-48 hrs
[4] = molecular target: Poly [ADP-ribose] polymerase 1 (Homo sapiens) (UniProt P09874); experiment: Induction of PARP1 degradation in human HCC1937 cells harboring BRCA mutation assessed as fold change in PARP1 protein expression at 5 uM incubated for 48 hrs by Western blot analysis relative to control; type: cell-based
MDA-MB-231 [5] = experiment: Induction of apoptosis in human MDA-MB-231 cells assessed as upregulation in p21 gene expression at 5 to 10 uM incubated for 24 to 48 hrs by RT-PCR analysis; type: functional, cell-based; details: dose 5-10 µM, time 24-48 hrs
[6] = molecular target: Poly [ADP-ribose] polymerase 1 (Homo sapiens) (UniProt P09874); experiment: Induction of PARP1 degradation in triple-negative human MDA-MB-231 cells assessed as fold change in PARP1 protein expression at 1 uM incubated for 24 hrs by Western blot analysis relative to control; type: cell-based
MDA-MB-231 [7] = experiment: Induction of endoplasmic reticulum stress in human MDA-MB-231 cells assessed as increase in CHOP protein expression at 5 uM measured after 24 to 72 hrs by Western blot analysis; type: functional, cell-based; details: time 24-72 hrs
[8] = molecular target: Poly [ADP-ribose] polymerase 1 (Homo sapiens) (UniProt P09874); experiment: Induction of PARP1 degradation in human MDA-MB-231 cells at 5 uM pretreated for 2 hrs with proteasome inhibitor, carfilzomib for 2 hrs followed by incubation with compound for 48 hrs by immunoblotting analysis; type: cell-based
[9] = molecular target: Poly [ADP-ribose] polymerase 1 (Homo sapiens) (UniProt P09874); experiment: Induction of PARP1 degradation in human HCC1937 cells harboring BRCA mutation assessed as fold change in PARP1 protein expression at 5 uM incubated for 24 hrs by Western blot analysis relative to control; type: cell-based
MDA-MB-468 [10] = experiment: Cytotoxicity against human MDA-MB-468 cells assessed as reduction in cell viability measured after 96 hrs by CCK8 assay; type: functional, cell-based; details: MDA-MB-468, 96 h
[11] = molecular target: Poly [ADP-ribose] polymerase 1 (Homo sapiens) (UniProt P09874); experiment: Induction of PARP1 degradation in human MDA-MB-231 cells at 5 uM incubated for 48 hrs in presence 5 to 10 uM PARP1 inhibitor olaparib by Western blot analysis; type: cell-based
[12] = molecular target: Poly [ADP-ribose] polymerase 1 (Homo sapiens) (UniProt P09874); experiment: Induction of PARP1 degradation in triple-negative human MDA-MB-231 cells assessed as fold change in PARP1 protein expression at 2.5 uM incubated for 24 hrs by Western blot analysis relative to control; type: cell-based
MDA-MB-231 [13] = experiment: Induction of autophagy in human MDA-MB-231 cells assessed as upregulation in LC3B protein expression at 5 uM measured after 48 to 72 hrs by Western blot analysis; type: functional, cell-based; details: time 48-72 hrs
[14] = molecular target: Poly [ADP-ribose] polymerase 1 (Homo sapiens) (UniProt P09874); experiment: Induction of PARP1 degradation in human MDA-MB-468 cells assessed as fold change in PARP1 protein expression at 5 uM pretreated for 2 hrs with pan-caspase inhibitor, Z-VAD-FMK followed by incubation with compound for 48 hrs by Western blot analysis relative to control; type: cell-based
MDA-MB-231 [15] = experiment: Induction of apoptosis in human MDA-MB-231 cells assessed as apoptotic body formation at 5 uM incubated for 24 to 48 hrs by transmission electron microscopy; type: functional, cell-based; details: time 24-48 hrs
[16] = molecular target: Poly [ADP-ribose] polymerase 1 (Homo sapiens) (UniProt P09874); experiment: Induction of PARP1 degradation in triple-negative human MDA-MB-231 cells assessed as fold change in PARP1 protein expression at 5 uM incubated for 24 hrs by Western blot analysis relative to control; type: cell-based
[17] = molecular target: Poly [ADP-ribose] polymerase 1 (Homo sapiens) (UniProt P09874); experiment: Induction of PARP1 degradation in human MDA-MB-231 cells at 5 uM incubated for 48 hrs in presence of proteasome inhibitor, bortezomib by immunoblotting analysis; type: cell-based
MDA-MB-231 [18] = experiment: Induction of apoptosis in human MDA-MB-231 cells assessed as downregulation in Bcl2 gene expression at 5 to 10 uM incubated for 24 to 48 hrs by RT-PCR analysis; type: functional, cell-based; details: dose 5-10 µM, time 24-48 hrs
[19] = molecular target: Poly [ADP-ribose] polymerase 1 (Homo sapiens) (UniProt P09874); experiment: Induction of PARP1 degradation in triple-negative human MDA-MB-231 cells assessed as fold change in PARP1 protein expression at 0.5 uM incubated for 48 hrs by Western blot analysis relative to control; type: cell-based
MDA-MB-231 [20] = experiment: Induction of apoptosis in human MDA-MB-231 cells assessed as upregulation in Bax gene expression at 5 to 10 uM incubated for 24 to 48 hrs by RT-PCR analysis; type: functional, cell-based; details: dose 5-10 µM, time 24-48 hrs
[21] = molecular target: Poly [ADP-ribose] polymerase 1 (Homo sapiens) (UniProt P09874); experiment: Induction of PARP1 degradation in human MDA-MB-231 cells assessed as fold change in PARP1 protein expression at 5 uM pretreated with caspase I inhibitor, Ac-YVAD-cmk for 2 hrs followed by incubation with compound for 48 hrs by Western blot analysis relative to control; type: cell-based
[22] = molecular target: Poly [ADP-ribose] polymerase 1 (Homo sapiens) (UniProt P09874); experiment: Induction of PARP1 degradation in triple-negative human MDA-MB-231 cells assessed as fold change in PARP1 protein expression at 0.1 uM incubated for 24 hrs by Western blot analysis relative to control; type: cell-based
MDA-MB-468 [23] = experiment: Induction of apoptosis in human MDA-MB-468 cells assessed as decrease in Bcl2 protein expression at 5 uM incubated for 48 hrs by Western blot analysis; type: functional, cell-based
[24] = molecular target: Poly [ADP-ribose] polymerase 1 (Homo sapiens) (UniProt P09874); experiment: Induction of PARP1 degradation in triple-negative human MDA-MB-231 cells assessed as fold change in PARP1 protein expression at 0.01 uM incubated for 48 hrs by Western blot analysis relative to control; type: cell-based
[25] = molecular target: Poly [ADP-ribose] polymerase 1 (Homo sapiens) (UniProt P09874); experiment: Induction of PARP1 degradation in human MDA-MB-468 cells assessed as fold change in PARP1 protein expression at 5 uM incubated for 48 hrs in presence of pan-caspase inhibitor, Z-VAD-FMK by Western blot analysis; type: cell-based
[26] = molecular target: Poly [ADP-ribose] polymerase 1 (Homo sapiens) (UniProt P09874); experiment: Induction of PARP1 degradation in human MDA-MB-231 cells assessed as fold change in PARP1 protein expression at 5 uM incubated for 48 hrs in presence of pan-caspase inhibitor, Z-VAD-FMK by Western blot analysis; type: cell-based
[27] = molecular target: Poly [ADP-ribose] polymerase 1 (Homo sapiens) (UniProt P09874); experiment: Induction of PARP1 degradation in human MDA-MB-231 cells at 2.5 uM incubated for 48 hrs by Western blot analysis relative to control; type: cell-based
[28] = molecular target: Poly [ADP-ribose] polymerase 1 (Homo sapiens) (UniProt P09874); experiment: Induction of PARP1 degradation in triple negative human MDA-MB-231 cells assessed as fold change in PARP1 protein expression at 5 uM incubated for 48 hrs by Western blot analysis relative to control; type: cell-based
MDA-MB-231 [29] = experiment: Induction of apoptosis in human MDA-MB-231 cells assessed as increase in cytochrome C protein expression at 5 uM incubated for 24 to 48 hrs by Western blot analysis; type: functional, cell-based; details: time 24-48 hrs
[30] = molecular target: Poly [ADP-ribose] polymerase 1 (Homo sapiens) (UniProt P09874); experiment: Induction of PARP1 degradation in human MDA-MB-231 cells at 5 uM pretreated for 2 hrs with proteasome inhibitor, bortezomib for 2 hrs followed by incubation with compound for 48 hrs by immunoblotting analysis; type: cell-based

Poly [ADP-ribose] polymerase 1 (Homo sapiens), sequence (P09874 whole entry): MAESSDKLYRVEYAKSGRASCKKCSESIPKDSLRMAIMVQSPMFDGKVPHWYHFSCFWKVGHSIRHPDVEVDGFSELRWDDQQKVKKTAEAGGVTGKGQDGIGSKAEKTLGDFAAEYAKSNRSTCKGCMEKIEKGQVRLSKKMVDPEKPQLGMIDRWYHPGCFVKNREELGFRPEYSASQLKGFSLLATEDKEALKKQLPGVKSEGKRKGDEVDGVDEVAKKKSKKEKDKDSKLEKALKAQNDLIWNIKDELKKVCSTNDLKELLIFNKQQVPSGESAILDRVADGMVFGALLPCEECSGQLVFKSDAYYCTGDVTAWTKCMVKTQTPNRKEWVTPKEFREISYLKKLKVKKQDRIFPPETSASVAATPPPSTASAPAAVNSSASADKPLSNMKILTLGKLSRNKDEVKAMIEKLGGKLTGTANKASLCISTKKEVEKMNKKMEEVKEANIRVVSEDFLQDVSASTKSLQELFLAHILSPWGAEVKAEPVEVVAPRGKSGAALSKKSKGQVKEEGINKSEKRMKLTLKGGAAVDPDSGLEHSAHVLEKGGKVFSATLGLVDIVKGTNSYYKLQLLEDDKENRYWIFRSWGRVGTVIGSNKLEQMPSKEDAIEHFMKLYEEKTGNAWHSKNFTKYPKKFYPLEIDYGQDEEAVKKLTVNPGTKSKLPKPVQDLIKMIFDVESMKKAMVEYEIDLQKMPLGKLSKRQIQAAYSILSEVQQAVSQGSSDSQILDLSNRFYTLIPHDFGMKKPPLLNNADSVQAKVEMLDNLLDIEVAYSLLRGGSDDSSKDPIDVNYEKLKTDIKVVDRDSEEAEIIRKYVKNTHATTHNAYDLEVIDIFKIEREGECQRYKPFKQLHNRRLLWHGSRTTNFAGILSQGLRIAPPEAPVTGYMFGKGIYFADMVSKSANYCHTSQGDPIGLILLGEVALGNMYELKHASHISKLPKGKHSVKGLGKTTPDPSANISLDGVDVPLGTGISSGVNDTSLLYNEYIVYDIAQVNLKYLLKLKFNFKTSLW

O=C(CC1c2ccccc2-c2ccccc21)N1CCN(C(=O)c2cc(Cc3n[nH]c(=O)c4ccccc34)ccc2F)CC1
fold change (FC) [1]: 0.7
fold change (FC) [2]: 0.3
Activity (MDA-MB-231 [3]): Active
fold change (FC) [4]: 0
Activity (MDA-MB-231 [5]): Active
fold change (FC) [6]: 0.8
Activity (MDA-MB-231 [7]): Active
Activity [8]: inactive
fold change (FC) [9]: 0.3
IC50 (MDA-MB-468 [10]): 5.72 µM
Activity [11]: inactive
fold change (FC) [12]: 0.8
Activity (MDA-MB-231 [13]): Active
fold change (FC) [14]: 0.4
Activity (MDA-MB-231 [15]): Active
fold change (FC) [16]: 0.8
Activity [17]: inactive
Activity (MDA-MB-231 [18]): Active
fold change (FC) [19]: 0.6
Activity (MDA-MB-231 [20]): Active
fold change (FC) [21]: 0.3
fold change (FC) [22]: 0.9
Activity (MDA-MB-468 [23]): Active
fold change (FC) [24]: 0.7
fold change (FC) [25]: 0.4
fold change (FC) [26]: 0.3
Activity [27]: 60%
fold change (FC) [28]: 0.1
Activity (MDA-MB-231 [29]): Active
Activity [30]: inactive
